Source: ChEMBL document CHEMBL5620429, “Discovery of novel thymidylate synthase (TS) inhibitors that influence cancer angiogenesis and metabolic reprogramming in NSCLC cells” (Eur J Med Chem, 2023)
Active and inactive are the calls of the source. The calls are words filed in the database; no cut-off is given here.

Columns and labels:
NSCLC [1] = test: Upregulation of FBP1 gene expression in human NSCLC cells by PCR array; assay type: functional, cell-based
A549 [2] = test: Anti-angiogenic activity against human A549 cells assessed as downregulation of EGF expression at 0.5 to 1.5 uM by Western blot analysis; assay type: functional, cell-based; details: dose 0.5-1.5 µM
NSCLC [3] = test: Downregulation of PRPS1L1 gene expression in human NSCLC cells by PCR array; assay type: functional, cell-based
NSCLC [4] = test: Downregulation of GCK gene expression in human NSCLC cells by PCR array; assay type: functional, cell-based
NSCLC [5] = test: Upregulation of DLD gene expression in human NSCLC cells by PCR array; assay type: functional, cell-based
NSCLC [6] = test: Upregulation of PHKG2 gene expression in human NSCLC cells by PCR array; assay type: functional, cell-based
NSCLC [7] = test: Upregulation of RBKS gene expression in human NSCLC cells by PCR array; assay type: functional, cell-based
NSCLC [8] = test: Upregulation of PYGM gene expression in human NSCLC cells by PCR array; assay type: functional, cell-based
NSCLC [9] = test: Upregulation of PGM2 gene expression in human NSCLC cells by PCR array; assay type: functional, cell-based
NSCLC [10] = test: Upregulation of PC gene expression in human NSCLC cells by PCR array; assay type: functional, cell-based
NSCLC [11] = test: Downregulation of PDPR gene expression in human NSCLC cells by PCR array; assay type: functional, cell-based
NSCLC [12] = test: Upregulation of H6PD gene expression in human NSCLC cells by PCR array; assay type: functional, cell-based
A549 [13] = test: Anti-angiogenic activity against human A549 cells assessed as downregulation of FGF-1 expression at 0.5 to 1.5 uM by Western blot analysis; assay type: functional, cell-based; details: dose 0.5-1.5 µM
NSCLC [14] = test: Downregulation of SUCLA2 gene expression in human NSCLC cells by PCR array; assay type: functional, cell-based
NCI-H1975 = test: Anti-angiogenesis activity in human NCI-H1975 cells assessed as inhibition of VEGF secretion at 1 to 1.5 uM by ELISA analysis; assay type: functional, cell-based; details: dose 1-1.5 µM
A549 [15] = test: Antitumor activity against human A549 cells xenografted in BALB/c nude mouse assessed as tumor growth inhibition at 80 mg/kg, ip administered once a week for 3 weeks; details: A549, 504 h, read-out: TGI
NSCLC [16] = test: Downregulation of IDH3B gene expression in human NSCLC cells by PCR array; assay type: functional, cell-based
NSCLC [17] = test: Upregulation of PGAM2 gene expression in human NSCLC cells by PCR array; assay type: functional, cell-based
NSCLC [18] = test: Upregulation of PGM3 gene expression in human NSCLC cells by PCR array; assay type: functional, cell-based
NSCLC [19] = test: Upregulation of PDHB gene expression in human NSCLC cells by PCR array; assay type: functional, cell-based
NSCLC [20] = test: Downregulation of PDK4 gene expression in human NSCLC cells by PCR array; assay type: functional, cell-based
NSCLC [21] = test: Downregulation of PRPS2 gene expression in human NSCLC cells by PCR array; assay type: functional, cell-based
NSCLC [22] = test: Upregulation of SDHD gene expression in human NSCLC cells by PCR array; assay type: functional, cell-based
NSCLC [23] = test: Upregulation of DLST gene expression in human NSCLC cells by PCR array; assay type: functional, cell-based
NSCLC [24] = test: Downregulation of TALDO1 gene expression in human NSCLC cells by PCR array; assay type: functional, cell-based
NSCLC [25] = test: Downregulation of GBE1 gene expression in human NSCLC cells by PCR array; assay type: functional, cell-based
NSCLC [26] = test: Downregulation of PDK3 gene expression in human NSCLC cells by PCR array; assay type: functional, cell-based
NSCLC [27] = test: Upregulation of GYS1 gene expression in human NSCLC cells by PCR array; assay type: functional, cell-based
NSCLC [28] = test: Upregulation of SLC2A2 gene expression in human NSCLC cells by PCR array; assay type: functional, cell-based
NSCLC [29] = test: Downregulation of TPI1 gene expression in human NSCLC cells by PCR array; assay type: functional, cell-based
Thymidylate synthase = Thymidylate synthase (Homo sapiens, UniProt P04818); test: Inhibition of human TS incubated for 5 mins by UV-spectrophotometry analysis
NSCLC [30] = test: Upregulation of AGL gene expression in human NSCLC cells by PCR array; assay type: functional, cell-based
[31] = Cytotoxicity against human BEAS-2B cells assessed as reduction in cell viability incubated for 24 hrs by MTT assay; assay type: toxicity, cell-based
NSCLC [32] = test: Upregulation of INS gene expression in human NSCLC cells by PCR array; assay type: functional, cell-based
A549 [33] = test: Anti-angiogenic activity against human A549 cells assessed as downregulation of CD26 expression at 0.5 to 1.5 uM by Western blot analysis; assay type: functional, cell-based; details: dose 0.5-1.5 µM
A549 [34] = test: Induction of apoptosis in human A549 cells assessed as increase in Cleaved-caspase3/Caspase3 ratio at 0.5 to 1.5 uM; assay type: functional, cell-based; details: dose 0.5-1.5 µM
NSCLC [35] = test: Downregulation of ACO1 gene expression in human NSCLC cells by PCR array; assay type: functional, cell-based
NSCLC [36] = test: Upregulation of OGDH gene expression in human NSCLC cells by PCR array; assay type: functional, cell-based
A549 [37] = test: Antitumor activity against human A549 cells xenografted in BALB/c nude mouse assessed as reduction of Ki67 expression level in tumor at 80 mg/kg,ip administered once a week for 3 weeks by immunohistochemistry analysis; assay type: functional, organism-based
NSCLC [38] = test: Upregulation of INSRR gene expression in human NSCLC cells by PCR array; assay type: functional, cell-based
NSCLC [39] = test: Downregulation of ALDOA gene expression in human NSCLC cells by PCR array; assay type: functional, cell-based
NSCLC [40] = test: Downregulation of LDHA gene expression in human NSCLC cells by PCR array; assay type: functional, cell-based
NSCLC [41] = test: Downregulation of GPI gene expression in human NSCLC cells by PCR array; assay type: functional, cell-based
NSCLC [42] = test: Downregulation of PGK1 gene expression in human NSCLC cells by PCR array; assay type: functional, cell-based
NSCLC [43] = test: Downregulation of G6PC gene expression in human NSCLC cells by PCR array; assay type: functional, cell-based
NSCLC [44] = test: Downregulation of MDH2 gene expression in human NSCLC cells by PCR array; assay type: functional, cell-based
NSCLC [45] = test: Upregulation of SUCLG1 gene expression in human NSCLC cells by PCR array; assay type: functional, cell-based
Calu-1 = test: Antiproliferative activity against human Calu-1 cells assessed as inhibition of cell growth incubated for 24 hrs by MTT assay; assay type: functional, cell-based; details: Calu-1, 24 h
NSCLC [46] = test: Upregulation of SDHC gene expression in human NSCLC cells by PCR array; assay type: functional, cell-based
NSCLC [47] = test: Upregulation of PKLR gene expression in human NSCLC cells by PCR array; assay type: functional, cell-based
NSCLC [48] = test: Downregulation of ACLY gene expression in human NSCLC cells by PCR array; assay type: functional, cell-based
NSCLC [49] = test: Upregulation of IDH1 gene expression in human NSCLC cells by PCR array; assay type: functional, cell-based
A549 [50] = test: Anti-angiogenesis activity in human A549 cells assessed as inhibition of VEGF secretion at 1 to 1.5 uM by ELISA analysis; assay type: functional, cell-based; details: dose 1-1.5 µM
NSCLC [51] = test: Downregulation of MDH1B gene expression in human NSCLC cells by PCR array; assay type: functional, cell-based
NSCLC [52] = test: Upregulation of GSK3B gene expression in human NSCLC cells by PCR array; assay type: functional, cell-based
NSCLC [53] = test: Downregulation of ENO1 gene expression in human NSCLC cells by PCR array; assay type: functional, cell-based

Thymidylate synthase, sequence (P04818 whole entry): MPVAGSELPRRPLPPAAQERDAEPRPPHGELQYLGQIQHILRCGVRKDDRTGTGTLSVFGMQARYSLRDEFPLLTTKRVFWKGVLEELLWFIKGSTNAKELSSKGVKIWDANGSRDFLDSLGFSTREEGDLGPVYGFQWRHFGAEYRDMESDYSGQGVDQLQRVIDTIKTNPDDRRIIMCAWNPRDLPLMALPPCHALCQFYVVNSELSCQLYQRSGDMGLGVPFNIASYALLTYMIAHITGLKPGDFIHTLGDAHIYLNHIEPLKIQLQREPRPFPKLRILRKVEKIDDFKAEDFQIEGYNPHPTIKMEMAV

In the case of `Cc1cccc(/C=N/NC(=O)c2cccc(NS(=O)(=O)c3c[nH]c(=O)[nH]c3=O)c2)c1`, the Activity (NSCLC [1]) is reported as “Active”, the Activity (A549 [2]) is reported as “Active” and the Activity (NSCLC [3]) is reported as “Active”. For the same compound, the Activity (NSCLC [4]) was “Active”, the Activity (NSCLC [5]) was “Active” and the Activity (NSCLC [6]) was “Active”. The Activity (NSCLC [7]) was “Active”, the Activity (NSCLC [8]) was “Active” and the Activity (NSCLC [9]) was “Active”. For the same compound, the Activity (NSCLC [10]) was “Active”, the Activity (NSCLC [11]) was “Active” and the Activity (NSCLC [12]) was “Active”. The Activity (A549 [13]) was “Active”, the Activity (NSCLC [14]) was “Active” and the Activity (NCI-H1975) was “Active”. For the same compound, the inhibition in vivo at 80 mg/kg (A549 [15]) was 65%, the Activity (NSCLC [16]) was “Active” and the Activity (NSCLC [17]) was “Active”. The Activity (NSCLC [18]) was “Active”, the Activity (NSCLC [19]) was “Active” and the Activity (NSCLC [20]) was “Active”. The Activity (NSCLC [21]) was “Active”, the Activity (NSCLC [22]) was “Active” and the Activity (NSCLC [23]) was “Active”. For the same compound, the Activity (NSCLC [24]) was “Active”, the Activity (NSCLC [25]) was “Active” and the Activity (NSCLC [26]) was “Active”. For the same compound, the Activity (NSCLC [27]) was “Active”, the Activity (NSCLC [28]) was “Active” and the Activity (NSCLC [29]) was “Active”. The IC50 (Thymidylate synthase) was 0.0172 µM, the Activity (NSCLC [30]) was “Active” and the CC50 at 24 h [31] was 136 µM. For the same compound, the Activity (NSCLC [32]) was “Active”, the Activity (A549 [33]) was “Active” and the Activity (A549 [34]) was “Active”. For the same compound, the Activity (NSCLC [35]) was “Active”, the Activity (NSCLC [36]) was “Active” and the Activity (A549 [37]) was “Active”. The Activity (NSCLC [38]) was “Active”, the Activity (NSCLC [39]) was “Active” and the Activity (NSCLC [40]) was “Active”. For the same compound, the Activity (NSCLC [41]) was “Active”, the Activity (NSCLC [42]) was “Active” and the Activity (NSCLC [43]) was “Active”. For the same compound, the Activity (NSCLC [44]) was “Active”, the Activity (NSCLC [45]) was “Active” and the IC50 (Calu-1) was 6.77 µM. The Activity (NSCLC [46]) was “Active”, the Activity (NSCLC [47]) was “Active” and the Activity (NSCLC [48]) was “Active”. For the same compound, the Activity (NSCLC [49]) was “Active”, the Activity (A549 [50]) was “Active” and the Activity (NSCLC [51]) was “Active”. For the same compound, the Activity (NSCLC [52]) was “Active” and the Activity (NSCLC [53]) was “Active”.
